A word on the Solubility: it is the dissolved amount per volume that the medium holds.

This is an account of results in patent US9717678B2, “Delivery systems for improving oral bioavailability of Fenobam, its hydrates, and salts” (MURTY PHARMACEUTICALS, INC., priority 2011, dated 2017).

Converted amounts (≈) assume the structure as drawn.

A short description of the data set: Equilibrium solubility by HPLC. The class given is physicochemical.
Setting [1] is: comparative equilibrium solubility (Table 2), solvent 0.1 N HCl.
Where [2] appears, read: comparative equilibrium solubility (Table 2), solvent PEG 400.
Setting [3] is: comparative equilibrium solubility (Table 2), solvent Phosphate Buffer, pH 7.4.

For `CN1CC(=O)N/C1=N\C(=O)Nc1cccc(Cl)c1.O` [Fenobam Monohydrate], the Solubility by setting is: under setting [1], 308 µg/mL; under setting [2], 34500 µg/mL; under setting [3], 39 µg/mL.
On the same counts, the results for `CN1CC(=O)N=C1NC(=O)Nc1cccc(Cl)c1.O=S(=O)(O)O` [Fenobam Sulfate] are 303 µg/mL, 5650 µg/mL and 27 µg/mL.
For `CN1CC(=O)NC1=NC(=O)Nc1cccc(Cl)c1` [Fenobam], the Solubility runs as follows: under setting [1], 392 µg/mL (≈ 1470 µM); under setting [2], 24400 µg/mL (≈ 91500 µM); under setting [3], 33 µg/mL (≈ 124 µM); (equilibrium solubility, solvent 0.1 N HCl) 392 µg/mL (≈ 1470 µM); (equilibrium solubility, solvent 10% Cremophor RH 40) 643 µg/mL (≈ 2410 µM); (equilibrium solubility, solvent 10% Polysorbate 80) 1190 µg/mL (≈ 4460 µM). This molecule returned a Solubility (equilibrium solubility, solvent 20% Polyethylene Glycol (PEG) 400) of 124 µg/mL (≈ 465 µM); a Solubility (equilibrium solubility, solvent 20% Propylene Glycol) of 65 µg/mL (≈ 244 µM); a Solubility (equilibrium solubility, solvent 30% HP-Beta-Cyclodextrin) of 2190 µg/mL (≈ 8210 µM); a Solubility (equilibrium solubility, solvent Acetate Buffer, pH 4.0) of 25 µg/mL (≈ 93.7 µM); a Solubility (equilibrium solubility, solvent Ethanol) of 2900 µg/mL (≈ 10900 µM); a Solubility (equilibrium solubility, solvent Phosphate Buffer, pH 7.4) of 33 µg/mL (≈ 124 µM). Besides, the Solubility was found to be 24400 µg/mL (≈ 91500 µM) (equilibrium solubility, solvent Polyethylene Glycol (PEG) 400) and 4460 µg/mL (≈ 16700 µM) (equilibrium solubility, solvent Propylene Glycol).
